Laboratory results: patent publication US12590093B2, “Indolo[2′,3′:3,4]pyrido[2,1-b]quinazoline compound and use thereof” (INSTITUTE OF MEDICINAL BIOTECHNOLOGY CHINESE ACADEMY OF …, priority 2019, dated 2026)
“Also recorded” adds a separate entry of the source.

How the values were obtained:
ABCA1 = ABCA1 expression in RAW 264.7 cells by western-blot, with or without si-AMPK; type: cell-based, Murine
Experimental: Murine macrophages RAW 264.7 cells were subcultured about every 48 h. When the cells were approximately 100% confluent, the old culture medium was removed, and the cells were washed with PBS and digested with trypsin at an appropriate amount for about 2 min at RT. After the digestion solution was removed, the RPMI-1640 complete medium containing 10% FBS was added immediately to inhibit the activity of trypsin. The cells in the culture flask were repeatedly and gently blown with a curved straw, so that they were completely detached from the bottom of the flask and dispersed into the single-cell suspension. The cells were seeded into a new cell flask at a density of 1:4-1:6, and added with an appropriate amount of the complete medium. The flask was placed in an incubator and cultured at 37° C., 5% CO2. RAW264.7 cells were pretreated with si-AMPK (AMPK siRNA) for 24 h, and then treated with compound TR3 (1 μM) for 24 h. The expression of ABCA1 and AMPK was detected by western-blot.
The effect of TR3 on AMPK was detected by western-blot.

MAPK signaling pathway = test: Western-blot of MAPK signaling pathway in ApoE−/− mice; type: in vivo; settings: FIG. 8
Experimental: 6-week-old male C57/BL6 ApoE^−/− mice were fed on normal chaw diet for one week. The mice were randomly divided into three groups (control group, high-fat diet model group, and treatment group, 12 mice per group) according to the body weight. From 7-week-old, the high-fat diet model group and the treatment group were fed on a high fat diet (HFD) (0.15% cholesterol and 20% fat), and the control group was fed on normal chow diet. The treatment group (R3) mice were administered intragastrically with TR3 (5 mg/kg). The control group and the high-fat diet model group mice were intragastrically administered with sodium carboxymethylcellulose (CMC-Na) solution. After 12 weeks of administration, all mice were fasted overnight. The blood sample was taken from the retro-orbital plexus, collected in a EP tube, and then centrifuged for 15 min (2500 rpm). The centrifuged serum (upper layer) was transferred to new EP tubes (divided into two aliquots) and stored at −20° C. for further use. The mice were fixed, and the skin was cut open along the midline of the abdomen to the neck. The abdominal cavity was cut open to collect the fresh liver tissue. The Liver tissue was put into 3 freezing tubes, and then immediately put into liquid nitrogen for subsequent detection of liver lipid detection and extraction of RNA and protein. The thorax was cut open to expose the heart. The heart was perfused with 10 ml PBS, and then fixed by perfusion with 4% paraformaldehyde solution until the liver turned white. The fixed liver was taken out and placed in a six-well plate containing 4% paraformaldehyde solution for further fixation. […]
(§1) When animal tissues were used to prepare protein samples, the tissues were firstly homogenized and lysed in the RIPA lysis buffer. […] When cell supernatants were used to prepare protein samples, the supernatants were freeze-dried, needed to be extracted using a protein recovery kit (Applygen, Beijing, China), and then analyzed by western-blot. […]

LXRβ = biological target: T1, LXRβ (Homo sapiens, UniProt P55055); test: Nuclear receptor reporter gene transient transfection (pBIND-hLXRs-LBD) in HepG2 cells, LXRβ; type: cell-based
T1 construct: expressed in transfected cells; host or cells: HepG2
T1 sequence (P55055 222-460 limits assumed): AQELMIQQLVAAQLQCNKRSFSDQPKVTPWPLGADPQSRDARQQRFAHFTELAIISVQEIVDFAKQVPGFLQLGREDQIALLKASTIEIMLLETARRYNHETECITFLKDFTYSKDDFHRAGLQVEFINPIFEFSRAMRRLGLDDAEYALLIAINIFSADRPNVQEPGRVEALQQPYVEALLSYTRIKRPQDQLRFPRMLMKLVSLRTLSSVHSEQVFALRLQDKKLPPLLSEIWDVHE
Experimental: HepG2 cells in logarithmic growth phase were digested, seeded into the white/clear 96-well plate at a density of 5×10^4 cells/well/100 μL until the cells grew to about 90% confluence and in good condition. 0.5 μL liposome (Lipofectamine® 2000) diluted with blank medium to 25 μL per well and incubated at room temperature for 5 min. The corresponding plasmids DNA (nuclear receptor plasmid:Gal4=1:10) were diluted in blank DMEM medium to 25 μL/well (mixing of two plasmids), then mixed evenly with the diluted liposome, and incubated for 20 min at 37° C. The DNA-liposome complex (50 μL per well) was added with the DMEM complete medium (100 μL per well) and mixed thoroughly to obtain a DNA-liposome complex cell culture. The cell medium was discarded, and replaced with the DNA-liposome complex cell culture (150 μL/well) (37° C., 5% CO2). After 6 h, the DNA-liposome complex cell culture medium was discarded, and 200 μL serum-free DMEM medium containing the compound at an appropriate concentration was added to each test well, and cultured for 18-24 h. The cell Luciferase activity was measured by the method as described in the Luciferase Assay System.

ApoE^−/− mice = test: Serum lipid levels in ApoE−/− mice; type: in vivo; settings: 5 mg/kg intragastrically, 12 weeks, HFD, versus model group
Experimental: (§2) 6-week-old male C57/BL6 ApoE^−/− mice were fed on normal chaw diet for one week. The mice were randomly divided into three groups (control group, high-fat diet model group, and treatment group, 12 mice per group) according to the body weight. From 7-week-old, the high-fat diet model group and the treatment group were fed on a high fat diet (HFD) (0.15% cholesterol and 20% fat), and the control group was fed on normal chow diet. The treatment group (R3) mice were administered intragastrically with TR3 (5 mg/kg). The control group and the high-fat diet model group mice were intragastrically administered with sodium carboxymethylcellulose (CMC-Na) solution. After 12 weeks of administration, all mice were fasted overnight. The blood sample was taken from the retro-orbital plexus, collected in a EP tube, and then centrifuged for 15 min (2500 rpm). The centrifuged serum (upper layer) was transferred to new EP tubes (divided into two aliquots) and stored at −20° C. for further use. The mice were fixed, and the skin was cut open along the midline of the abdomen to the neck. The abdominal cavity was cut open to collect the fresh liver tissue. The Liver tissue was put into 3 freezing tubes, and then immediately put into liquid nitrogen for subsequent detection of liver lipid detection and extraction of RNA and protein. The thorax was cut open to expose the heart. The heart was perfused with 10 ml PBS, and then fixed by perfusion with 4% paraformaldehyde solution until the liver turned white. The fixed liver was taken out and placed in a six-well plate containing 4% paraformaldehyde solution for further fixation. The full-length aorta (from the ascending aorta to the common iliac arteries) was isolated and placed in a six-well plate containing 4% paraformaldehyde solution. The aorta was fixed in 4% paraformaldehyde solution overnight and then stored in 20% sucrose solution at 4° C.
The plasma biochemical indices were measured by using commercially available kits (Biosino Bio-technology and Science Inc., China) and the automatic biochemical analyzer.

SR-BI = SR-BI protein expression in liver of ApoE−/− mice; type: in vivo; settings: FIG. 10
Experimental: (§3) 6-week-old male C57/BL6 ApoE^−/− mice were fed on normal chaw diet for one week. The mice were randomly divided into three groups (control group, high-fat diet model group, and treatment group, 12 mice per group) according to the body weight. From 7-week-old, the high-fat diet model group and the treatment group were fed on a high fat diet (HFD) (0.15% cholesterol and 20% fat), and the control group was fed on normal chow diet. The treatment group (R3) mice were administered intragastrically with TR3 (5 mg/kg). The control group and the high-fat diet model group mice were intragastrically administered with sodium carboxymethylcellulose (CMC-Na) solution. After 12 weeks of administration, all mice were fasted overnight. The blood sample was taken from the retro-orbital plexus, collected in a EP tube, and then centrifuged for 15 min (2500 rpm). The centrifuged serum (upper layer) was transferred to new EP tubes (divided into two aliquots) and stored at −20° C. for further use. […]
When animal tissues were used to prepare protein samples, the tissues were firstly homogenized and lysed in the RIPA lysis buffer. […] When cell supernatants were used to prepare protein samples, the supernatants were freeze-dried, needed to be extracted using a protein recovery kit (Applygen, Beijing, China), and then analyzed by western-blot.

NLRP3 inflammasome = test: Western-blot of NLRP3 inflammasome proteins in liver of ApoE−/− mouse and J774A1 cells; type: in vivo, mice
Experimental: as §2
When animal tissues were used to prepare protein samples, the tissues were firstly homogenized and lysed in the RIPA lysis buffer. The subsequent steps were the same as those for preparing protein samples from cells. When cell supernatants were used to prepare protein samples, the supernatants were freeze-dried, needed to be extracted using a protein recovery kit (Applygen, Beijing, China), and then analyzed by western-blot.
The western-blot was used to detect the effects of TR3 on the activation of NLRP3 inflammasome and other related proteins in the liver of ApoE^−/− mouse and J774A1 cells.

NF-κB signaling pathway = test: Western-blot of NF-κB signaling pathway in liver of ApoE−/− mice; type: in vivo; settings: FIG. 7
Experimental: as §3, §1

[1] = liver of ApoE−/− mouse and J774A1 cells, western-blot, FIG. 6

## c1ccc2c(c1)CN1CCc3c([nH]c4ccccc34)C1=N2 [TR3, 5,7,8,13-tetrahydroindolo[2′,3′:3,4]pyrido[2,1-b]quinazoline]
ABCA1; RAW 264.7 cells pretreated with si-AMPK 24 h, then 1 μM for 24 h
  up-regulation of ABCA1 expression after addition of si-AMPK: inhibited by the addition of interfering RNA (si-AMPK)
ABCA1; RAW 264.7 cells, 1 μM, western-blot, FIG. 11
  expression of ABCA1: significantly up-regulated
MAPK signaling pathway
  expression of p-ERK: also inhibited
  expression of p-JNK: also inhibited
  expression of p-P38: also inhibited
LXRβ; HepG2 cells, reporter gene, 18-24 h
  LXRβ max: 1.42
LXRβ; result in words
  LXRβ agonist activity: showed agonist activity; also recorded: simultaneously activated PPARα/γ/δ and LXRα/β to a certain extent
ApoE^−/− mice
  level of LDL-C in serum: greatly decreased
  level of TC in serum: greatly decreased
  level of TG in serum: greatly decreased
SR-BI
  expression of SR-BI in the liver: increased
NLRP3 inflammasome; liver of ApoE−/− mice
  activation of NLRP3 inflammasome in the liver: significantly inhibited
NLRP3 inflammasome; [1]
  expression of Caspase-1 protein: significantly inhibited
  expression of IL-1β protein: significantly inhibited
  expression of NLRP3 protein: significantly inhibited
NF-κB signaling pathway
  expression of p-IκBα: significantly inhibited
  expression of p-P65: significantly inhibited
